Measurements reported in PMC5514153, “Targeting PTPRZ inhibits stem cell-like properties and tumorigenicity in glioblastoma cells” (Scientific Reports, 2017).

Target: T1, hPTPRS (Homo sapiens, UniProt Q13332)
T1 construct: The ICRs of PTPRG, PTPRS, and PTPRB and the catalytic domains of PTPN1 and PTPN6; GST (N); made in house; host or cells: Escherichia coli BL21
T1 sequence (Q13332 1304-1948 limits assumed): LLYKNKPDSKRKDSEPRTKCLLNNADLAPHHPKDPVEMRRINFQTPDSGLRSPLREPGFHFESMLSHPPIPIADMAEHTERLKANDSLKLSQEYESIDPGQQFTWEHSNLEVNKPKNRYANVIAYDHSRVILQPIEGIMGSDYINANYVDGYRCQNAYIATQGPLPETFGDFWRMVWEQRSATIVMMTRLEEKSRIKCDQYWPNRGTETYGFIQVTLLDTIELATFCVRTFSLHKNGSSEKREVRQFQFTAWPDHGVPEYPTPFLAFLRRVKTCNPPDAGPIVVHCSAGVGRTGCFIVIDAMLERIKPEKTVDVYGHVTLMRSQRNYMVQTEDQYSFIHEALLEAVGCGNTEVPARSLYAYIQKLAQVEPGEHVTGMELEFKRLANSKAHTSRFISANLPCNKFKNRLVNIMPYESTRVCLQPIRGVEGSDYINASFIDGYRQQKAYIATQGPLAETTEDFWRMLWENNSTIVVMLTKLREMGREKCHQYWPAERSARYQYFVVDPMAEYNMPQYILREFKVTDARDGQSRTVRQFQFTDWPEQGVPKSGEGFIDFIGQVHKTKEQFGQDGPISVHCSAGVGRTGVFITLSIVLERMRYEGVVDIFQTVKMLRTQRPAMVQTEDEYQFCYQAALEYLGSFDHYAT
Experiment: In vitro PTPase assay (DiFMUP), PTPRS
Format: biochemical
Conditions: 60-min preincubation
Description: Figure 4 NAZ2329, an allosteric inhibitor of R5 RPTP subfamily members. (A) Structure of NAZ2329. (B) Effect of preincubation of NAZ2329 on its inhibitory activity against PTPRZ. Recombinant human PTPRZ1 enzyme (the whole intracellular region) was premixed with NAZ2329 for the indicated times and followed by addition of a fluorogenic DiFMUP (non-specific PTP substrate, 6,8-difluoro-4-methylumbiliferyl phosphate) to measure PTP inhibitory activity. (C) Time dependence. The PTPRZ1 enzyme was added to the inhibitor–substrate mixture, and the inhibitory activity was determined at each time point relative to the vehicle control. (D) Reversibility of inhibition. […] The mixture was then 20-fold diluted, and recovered PTP activity was expressed as the relative activity compared with the vehicle-treated enzyme. […] PTPRZ1 enzymes were preincubated with NAZ2329 for 60 min, and the PTP activity was measured using DiFMUP. […]
Recombinant proteins corresponding to the entire intracellular regions (ICRs) of PTPRZ1, PTPRA, and PTPRM were expressed using a baculovirus-silkworm expression system, and purified as described. The ICRs of PTPRG, PTPRS, and PTPRB and the catalytic domains of PTPN1 and PTPN6 were expressed as glutathione-S-transferase (GST) fusion proteins from each pGEX plasmid in Escherichia coli strain BL21 (ref. [6]). […]

- IC50: 23.7 µM
Compound: CCOc1ccc(C(F)(F)F)cc1CSc1ccsc1C(=O)NS(=O)(=O)c1ccccc1 [NAZ2329]
